The values below come from US10472347B2, “Aminopyrazine compounds with A2A antagonist properties” (Merck Sharp & Dohme Corp., priority 2014, dated 2019).

The assay deals with T1, human A2a receptor (Homo sapiens, UniProt P29274).
T1 construct: purchased Perkin-Elmer RBHA2AM400UA; host or cells: HEK293 cells (membranes)
T1 sequence (P29274 whole entry): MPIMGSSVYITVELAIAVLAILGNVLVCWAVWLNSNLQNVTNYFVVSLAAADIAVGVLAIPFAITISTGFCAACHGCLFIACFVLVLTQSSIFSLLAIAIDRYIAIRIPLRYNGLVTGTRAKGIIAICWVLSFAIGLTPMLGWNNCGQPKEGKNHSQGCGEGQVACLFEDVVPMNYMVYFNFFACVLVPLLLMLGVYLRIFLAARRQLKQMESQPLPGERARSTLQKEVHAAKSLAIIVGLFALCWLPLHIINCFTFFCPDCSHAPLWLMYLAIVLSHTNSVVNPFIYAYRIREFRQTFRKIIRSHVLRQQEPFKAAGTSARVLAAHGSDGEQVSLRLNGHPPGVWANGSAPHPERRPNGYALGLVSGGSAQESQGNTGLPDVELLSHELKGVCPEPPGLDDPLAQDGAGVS
The assay is described as follows: A2a competition binding assay, Scintillation Proximity technology. Conditions: membranes from HEK293 cells expressing human A2a receptor; Ki by Cheng-Prusoff equation. The procedure, abridged:
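Membranes from HEK293 cells expressing human A2a, adenosine deaminase-treated, incubated 1 h at room temperature with compound (3000 to 0.15 nM) and 0.5 nM tritiated pyrazolotriazolopyrimidine radioligand on WGA SPA beads in Ca/Mg-free PBS + 10 mM MgCl2. Non-specific binding with 1 μM CGS15943; Ki by Cheng-Prusoff.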
On the technique in general: Scintillation proximity formats need no separation of bound from free tracer.
In general, Ki refers to the equilibrium dissociation constant of an inhibitor or competing ligand from its target. The low end stands for a stronger hold on the target, the high end for a looser hold on the target. With `Nc1nc(-n2nccn2)c(Cl)nc1C(=O)N[C@H](CO)Cc1c[nH]c2ccccc12` [Ex-325, 3-amino-6-chloro-N-[(1S)-2-hydroxy-1-(1H-indol-3-ylmethyl)ethyl]-5-(2H-1,2,3-triazol-2-yl)pyrazine-2-carboxamide], the Ki is 337 nM.

Compound `Cc1cccc(CNC(=O)c2nc(Cl)c(-n3nccn3)nc2N)n1` [Ex-326, 3-amino-6-chloro-N-[(6-methylpyridin-2-yl)methyl]-5-(2H-1,2,3-triazol-2-yl)pyrazine-2-carboxamide] yielded a Ki of 6.1 nM.

As for `Nc1nc(-n2cncn2)c(Cl)nc1C(=O)NCc1ccccc1C(F)(F)F` [Ex-327, 3-amino-6-chloro-5-(1H-1,2,4-triazol-1-yl)-N-[2-(trifluoromethyl)benzyl] pyrazine-2-carboxamide], the affinity, expressed as Ki, was 55.7 nM.

As to `Nc1nc(-n2cncn2)c(Cl)nc1C(=O)NCc1ccc(F)cc1F` [Ex-328, 3-amino-6-chloro-N-(2,4-difluorobenzyl)-5-(1H-1,2,4-triazol-1-yl)pyrazine-2-carboxamide], the affinity, expressed as Ki, was 627 nM.

In turn, `Nc1nc(-n2cccn2)c(Cl)nc1C(=O)NCc1ccccc1C(F)(F)F` [Ex-329, 3-amino-6-chloro-5-(1H-pyrazol-1-yl)-N-[2-(trifluoromethyl)benzyl] pyrazine-2-carboxamide] had an inhibition constant (Ki) of 8.6 nM.

Compound `Nc1nc(-n2cccn2)c(Cl)nc1C(=O)NCc1ccc(F)cc1` [Ex-330, 3-amino-6-chloro-N-(4-fluorobenzyl)-5-(1H-pyrazol-1-yl)pyrazine-2-carboxamide] returned a Ki of 61.5 nM.

`Nc1nc(-n2cccn2)c(Cl)nc1C(=O)NCc1ccc(F)cc1F` [Ex-331, 3-amino-6-chloro-N-(2,4-difluorobenzyl)-5-(1H-pyrazol-1-yl)pyrazine-2-carboxamide]: affinity was put at a Ki of 75.4 nM.

On to `Nc1nc(-n2cccn2)c(Cl)nc1C(=O)NCc1cccc2cccnc12` [Ex-332, 3-amino-6-chloro-5-(1H-pyrazol-1-yl)-N-(quinolin-8-ylmethyl)pyrazine-2-carboxamide], for which the affinity, expressed as Ki, was 4.1 nM.

`Nc1nc(-n2cccn2)c(Cl)nc1C(=O)N[C@@H]1CCc2ccccc21` [Ex-333, 3-amino-6-chloro-N-[(1R)-2,3-dihydro-1H-inden-1-yl]-5-(1H-pyrazol-1-yl)pyrazine-2-carboxamide] had a Ki of 57.9 nM.

As for `Cc1cccnc1CNC(=O)c1nc(Cl)c(-n2cccn2)nc1N` [Ex-334, 3-amino-6-chloro-N-[(3-methylpyridin-2-yl)methyl]-5-(1H-pyrazol-1-yl)pyrazine-2-carboxamide], the Ki came to 13.7 nM.

For `Cc1cnn(-c2nc(N)c(C(=O)NCc3ccccc3C(F)(F)F)nc2Cl)c1` [Ex-335, 3-amino-6-chloro-5-(4-methyl-1H-pyrazol-1-yl)-N-[2-(trifluoromethyl)benzyl] pyrazine-2-carboxamide], the affinity, expressed as Ki, was 114 nM.

`Cc1cnn(-c2nc(N)c(C(=O)N[C@@H]3CCc4ccccc43)nc2Cl)c1` [Ex-336, 3-amino-6-chloro-N-[(1R)-2,3-dihydro-1H-inden-1-yl]-5-(4-methyl-1H-pyrazol-1-yl)pyrazine-2-carboxamide] displayed a Ki of 135 nM.

`Cc1cnn(-c2nc(N)c(C(=O)NCc3ncccc3C)nc2Cl)c1` [Ex-337, 3-amino-6-chloro-5-(4-methyl-1H-pyrazol-1-yl)-N-[(3-methylpyridin-2-yl)methyl]pyrazine-2-carboxamide] came in with a Ki of 11.2 nM.

`Cc1ccn(-c2nc(N)c(C(=O)NCc3ccccc3C(F)(F)F)nc2Cl)n1` [Ex-338, 3-amino-6-chloro-5-(3-methyl-1H-pyrazol-1-yl)-N-[2-(trifluoromethyl)benzyl] pyrazine-2-carboxamide] came in with a Ki of 133 nM.

Take `Cc1ccn(-c2nc(N)c(C(=O)N[C@@H]3CCc4ccccc43)nc2Cl)n1` [Ex-339, 3-amino-6-chloro-N-[(1R)-2,3-dihydro-1H-inden-1-yl]-5-(3-methyl-1H-pyrazol-1-yl)pyrazine-2-carboxamide]: the affinity, expressed as Ki, was 117 nM.

For `Cc1cnn(-c2nc(N)c(C(=O)NCc3cccc4cccnc34)nc2Cl)c1` [Ex-340, 3-amino-6-chloro-5-(4-methyl-1H-pyrazol-1-yl)-N-(quinolin-8-ylmethyl)pyrazine-2-carboxamide], affinity was put at a Ki of 12.8 nM.

`Cc1cnn(-c2nc(N)c(C(=O)NCc3ncccc3C)nc2C)c1` [Ex-341, 3-amino-6-methyl-5-(4-methyl-1H-pyrazol-1-yl)-N-[(3-methylpyridin-2-yl)methyl]pyrazine-2-carboxamide] showed a Ki of 105 nM.

The compound `Cc1cnn(-c2nc(N)c(C(=O)NCc3nccc4ccccc34)nc2C)c1` [Ex-342, 3-amino-N-(isoquinolin-1-ylmethyl)-6-methyl-5-(4-methyl-1H-pyrazol-1-yl)pyrazine-2-carboxamide] displayed a Ki of 122 nM.

As to `Cc1cnn(-c2nc(N)c(C(=O)NCc3ncccc3C(F)(F)F)nc2Cl)c1` [Ex-343, 3-amino-6-chloro-5-(4-methyl-1H-pyrazol-1-yl)-N-{[3-(trifluoromethyl)pyridin-2-yl]methyl}pyrazine-2-carboxamide], the inhibition constant Ki came out at 35.9 nM.

In turn, `Cc1cnn(-c2nc(N)c(C(=O)NCc3ccc(F)cc3F)nc2Cl)n1` [Ex-344, 3-amino-6-chloro-N-(2,4-difluorobenzyl)-5-(4-methyl-2H-1,2,3-triazol-2-yl)pyrazine-2-carboxamide] yielded a Ki of 31 nM.

`Cc1cnn(-c2nc(N)c(C(=O)NCc3ncccc3C)nc2Cl)n1` [Ex-345, 3-amino-6-chloro-N-[(3-methylpyridin-2-yl)methyl]-5-(4-methyl-2H-1,2,3-triazol-2-yl)pyrazine-2-carboxamide]: the Ki amounted to 6 nM.

As for `Cc1cnn(-c2nc(N)c(C(=O)NC3CCNc4ccccc43)nc2Cl)n1` (stereo not shown) [Ex-346, 3-amino-6-chloro-5-(4-methyl-2H-1,2,3-triazol-2-yl)-N-(1,2,3,4-tetrahydroquinolin-4-yl)pyrazine-2-carboxamide], the affinity corresponds to a Ki of 397 nM.

The compound `Cc1nc(C(=O)NCc2cccc3cccnc23)c(N)nc1-n1cccn1` [Ex-347, 3-amino-6-methyl-5-(1H-pyrazol-1-yl)-N-(quinolin-8-ylmethyl)pyrazine-2-carboxamide] had a Ki of 46.4 nM.

For the compound `Cc1cnn(-c2nc(N)c(C(=O)NCc3cccc4cccnc34)nc2Cl)n1` [Ex-348, 3-amino-6-chloro-5-(4-methyl-2H-1,2,3-triazol-2-yl)-N-(quinolin-8-ylmethyl)pyrazine-2-carboxamide], the Ki worked out at 10.1 nM.

In the case of `Cc1cnn(-c2nc(N)c(C(=O)N[C@H](CO)c3ccccc3)nc2Cl)c1` [Ex-349, 3-amino-6-chloro-N-[(1S)-2-hydroxy-1-phenylethyl]-5-(4-methyl-1H-pyrazol-1-yl)pyrazine-2-carboxamide], the Ki stood at 180 nM.

In the case of `Cc1cnn(-c2nc(N)c(C(=O)NCc3ccc4[nH]ccc4c3)nc2Cl)c1` [Ex-350, 3-amino-6-chloro-N-(1H-indol-5-ylmethyl)-5-(4-methyl-1H-pyrazol-1-yl)pyrazine-2-carboxamide], affinity was put at a Ki of 630 nM.

For `Cc1cnn(-c2nc(N)c(C(=O)NCc3nc4ccccc4n3C)nc2Cl)c1` [Ex-351, 3-amino-6-chloro-N-[(1-methyl-1H-benzimidazol-2-yl)methyl]-5-(4-methyl-1H-pyrazol-1-yl)pyrazine-2-carboxamide], the affinity corresponds to a Ki of 315 nM.

For `Cc1cnn(-c2nc(N)c(C(=O)NCc3cccc4cc[nH]c34)nc2Cl)c1` [Ex-352, 3-amino-6-chloro-N-(1H-indol-7-ylmethyl)-5-(4-methyl-1H-pyrazol-1-yl)pyrazine-2-carboxamide], affinity was put at a Ki of 51.1 nM.

In the case of `Cc1cnn(-c2nc(N)c(C(=O)NCc3cccc4[nH]ccc34)nc2Cl)c1` [Ex-353, 3-amino-6-chloro-N-(1H-indol-4-ylmethyl)-5-(4-methyl-1H-pyrazol-1-yl)pyrazine-2-carboxamide], the Ki was 49 nM.

Compound `Cc1cnn(-c2nc(N)c(C(=O)NCc3ccc4cc[nH]c4c3)nc2Cl)c1` [Ex-354, 3-amino-6-chloro-N-(1H-indol-6-ylmethyl)-5-(4-methyl-1H-pyrazol-1-yl)pyrazine-2-carboxamide] came in with a Ki of 390 nM.

In turn, `Cc1cnn(-c2nc(N)c(C(=O)NCc3nc4ccccc4s3)nc2Cl)c1` [Ex-355, 3-amino-N-(1,3-benzothiazol-2-ylmethyl)-6-chloro-5-(4-methyl-1H-pyrazol-1-yl)pyrazine-2-carboxamide] registered a Ki of 543 nM.

For `Cc1cnn(-c2nc(N)c(C(=O)NCc3nc4ccccc4o3)nc2Cl)c1` [Ex-356, 3-amino-N-(1,3-benzoxazol-2-ylmethyl)-6-chloro-5-(4-methyl-1H-pyrazol-1-yl)pyrazine-2-carboxamide], the Ki came out at 4.3 nM.

On to `Cc1cnn(-c2nc(N)c(C(=O)NCc3cccc4nccnc34)nc2Cl)c1` [Ex-357, 3-amino-6-chloro-5-(4-methyl-1H-pyrazol-1-yl)-N-(quinoxalin-5-ylmethyl)pyrazine-2-carboxamide], for which the Ki stood at 69.4 nM.

The compound `Cc1cnn(-c2nc(N)c(C(=O)NCc3ccccc3)nc2Cl)c1` [Ex-358, 3-amino-N-benzyl-6-chloro-5-(4-methyl-1H-pyrazol-1-yl)pyrazine-2-carboxamide] yielded a Ki of 73.3 nM.

Turning to `Cc1cnn(-c2nc(N)c(C(=O)NCc3cn4ccsc4n3)nc2Cl)c1` [Ex-359, 3-amino-6-chloro-N-(imidazo[2,1-b][1,3]thiazol-6-ylmethyl)-5-(4-methyl-1H-pyrazol-1-yl)pyrazine-2-carboxamide], the Ki was 90 nM.

In the case of `Cc1cnn(-c2nc(N)c(C(=O)NCc3cnc4ccccn34)nc2Cl)c1` [Ex-360, 3-amino-6-chloro-N-(imidazo[1,2-a]pyridin-3-ylmethyl)-5-(4-methyl-1H-pyrazol-1-yl)pyrazine-2-carboxamide], the affinity corresponds to a Ki of 615 nM.

In turn, `Cc1cnn(-c2nc(N)c(C(=O)NCc3cncc4ccccc34)nc2Cl)c1` [Ex-361, 3-amino-6-chloro-N-(isoquinolin-4-ylmethyl)-5-(4-methyl-1H-pyrazol-1-yl)pyrazine-2-carboxamide] came in with a Ki of 63.2 nM.
